Data reported in patent US20150011751A1, “NOVEL TRIAZINE DERIVATIVE” (CARNA BIOSCIENCES, INC., priority 2012, published 2015).

Biological target: Dephosphorylated BTK (Homo sapiens, UniProt Q06187)
Assay: Test of activity inhibition against dephosphorylated BTK (mobility shift assay)

Dephosphorylated BTK, sequence (Q06187 whole entry): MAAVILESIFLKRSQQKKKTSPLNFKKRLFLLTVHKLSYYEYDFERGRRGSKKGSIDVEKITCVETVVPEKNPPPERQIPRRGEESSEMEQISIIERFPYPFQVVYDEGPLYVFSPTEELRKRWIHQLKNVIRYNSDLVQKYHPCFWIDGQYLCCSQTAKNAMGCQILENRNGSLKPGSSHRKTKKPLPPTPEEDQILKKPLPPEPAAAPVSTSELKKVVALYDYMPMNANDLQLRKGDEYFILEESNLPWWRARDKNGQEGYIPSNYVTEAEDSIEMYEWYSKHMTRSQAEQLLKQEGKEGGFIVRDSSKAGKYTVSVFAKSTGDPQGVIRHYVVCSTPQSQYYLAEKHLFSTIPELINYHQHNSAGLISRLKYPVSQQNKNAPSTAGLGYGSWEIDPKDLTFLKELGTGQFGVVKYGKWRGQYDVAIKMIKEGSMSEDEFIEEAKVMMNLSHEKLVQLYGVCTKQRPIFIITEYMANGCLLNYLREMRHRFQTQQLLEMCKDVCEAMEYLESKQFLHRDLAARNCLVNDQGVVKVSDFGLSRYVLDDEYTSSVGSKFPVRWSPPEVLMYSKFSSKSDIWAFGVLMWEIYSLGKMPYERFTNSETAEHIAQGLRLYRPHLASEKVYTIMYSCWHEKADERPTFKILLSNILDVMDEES

IC50 [nM] | SMILES
0.8 | CC(C)(C)c1ccc(C(=O)Nc2cccc(-c3nc(N)nc(Nc4ccc(N5CCCC(O)C5)cc4)n3)c2CO)cc1 (centres unmarked) [Example 125, N-[3-(4-Amino-6-{[4-(3-hydroxypiperidin-1-yl)phenyl]amino}-1,3,5-triazin-2-yl)-2-(hy-droxymethyl)phenyl]-4-(tert-butyl)benzamide]
0.5 | CC(C)(C)c1ccc(C(=O)Nc2cccc(-c3nc(N)nc(Nc4ccc(N5CCNCC5)cc4)n3)c2CO)cc1 [Example 126, N-[3-(4-Amino-6-{[4-(piperazin-1-yl)phenyl]amino}-1,3,5-triazin-2-yl)-2-(hydroxymeth-yl)phenyl]-4-(tert-butyl)benzamide]
0.5 | Nc1nc(Nc2ccc(N3CCOC(CO)C3)cc2)nc(-c2cccc(NC(=O)c3cc4c(s3)CCCC4)c2CO)n1 (centres unmarked) [Example 127, N-{3-[4-Amino-6-({4-[2-(hydroxymethyl)morpho-lino]phenyl}amino)-1,3,5-triazin-2-yl]-2-(hydroxymethyl)phenyl}-4,5,6,7-tetrahydro-benzo[b]thiophene-2-carboxamide]
0.6 | Nc1nc(Nc2ccc(N3CCC(O)CC3)cc2)nc(-c2cccc(NC(=O)c3cc4c(s3)CCCC4)c2CO)n1 [Example 128, N-[3-(4-Amino-6-{[4-(4-hydroxypiperidin-1-yl)phenyl]amino}-1,3,5-triazin-2-yl)-2-(hy-droxymethyl)phenyl]-4,5,6,7-tetrahydrobenzo [b]thiophene-2-carbox-amide]
0.6 | COCCN(CCOC)Cc1ccc(Nc2nc(N)nc(-c3cccc(NC(=O)c4cc5c(s4)CCCC5)c3CO)n2)cc1 [Example 129, N-(3-{4-Amino-6-[(4-{[bis (2-methoxyethyl)a-mino]methyl}phenyl)ami-no]-1,3,5-triazin-2-yl}-2-(hydroxymethyl)phenyl)-4,5,6,7-tetra-hydrobenzo[b]thiophene-2-carboxamide]
0.5 | CN1CCN(C)C(c2ccc(Nc3nc(N)nc(-c4cccc(NC(=O)c5cc6c(s5)CCCC6)c4CO)n3)cc2)C1=O (centres unmarked) [Example 130, N-[3-(4-Amino-6-{[4-(1,4-dimethyl-3-oxopipe-razin-2-yl)phenyl]ami-no}-1,3,5-triazin-2-yl)-2-(hydroxymethyl)phenyl]-4,5,6,7-tetra-hydrobenzo[b]thiophene-2-carboxamide]
0.4 | COCCOc1ccc(Nc2nc(N)nc(-c3cccc(NC(=O)c4cc5c(s4)CCCC5)c3CO)n2)cc1OCCOC [Example 131, N-[3-(4-Amino-6-{[3,4-bis(2-methoxyethoxy)phenyl]amino}-1,3,5-tri-azin-2-yl)-2-(hydroxy-methyl)phenyl]-4,5,6,7-tetrahydrobenzo[b] thiophene-2-carboxamide]
0.5 | Nc1nc(Nc2ccc(CN3CCOCC3)cc2)nc(-c2cccc(NC(=O)c3cc4c(s3)CCCC4)c2CO)n1 [Example 132, N-[3-(4-Amino-6-{[4-(mor-pholinomethyl)phe-nyl]amino}-1,3,5-triazin-2-yl)-2-(hydroxymeth-yl)phenyl]-4,5,6,7-tetrahydrobenzo[b]thio-phene-2-carboxamide]
0.4 | Nc1nc(Nc2ccc(Cn3ccnc3)cc2)nc(-c2cccc(NC(=O)c3cc4c(s3)CCCC4)c2CO)n1 [Example 133, N-{3-[4-({4-[(1H-Imida-zol-1-yl)methyl]phe-nyl}amino)-6-amino-1,3,5-triazin-2-yl]-2-(hy-droxymethyl)phenyl}-4,5,6,7-tetrahydroben-zo[b]thiophene-2-carboxamide]
0.9 | COCCOc1ccc(Nc2nc(N)nc(-c3cccc(NC(=O)c4cc5c(s4)CCCC5)c3CO)n2)cc1 [Example 134, N-[3-(4-Amino-6-{[4-(2-methoxyethoxy)phenyl]amino}-1,3,5-triazin-2-yl)-2-(hydroxymeth-yl)phenyl]-4,5,6,7-tetra-hydrobenzo[b]thio-phene-2-carboxamide]
1.3 | CN(C)CCCOc1ccc(Nc2nc(N)nc(-c3cccc(NC(=O)c4cc5c(s4)CCCC5)c3CO)n2)cc1 [Example 135, N-{3-[4-Amino-6-({4-[3-(dimethylamino)prop-oxy]phenyl}amino)-1,3,5-triazin-2-yl]-2-(hy-droxymethyl)phenyl}-4,5,6,7-tetrahydro-benzo[b]thiophene-2-carboxamide]
1.3 | Nc1nc(Nc2ccc(O)cc2)nc(-c2cccc(NC(=O)c3cc4c(s3)CCCC4)c2CO)n1 [Example 136, N-(3-{4-Amino-6-[(4-hy-droxyphenyl)amino]-1,3,5-triazin-2-yl}-2-(hydroxymethyl)phenyl)-4,5,6,7-tetrahydro benzo[b]thiophene-2-carboxamide]
1.7 | Nc1nc(Nc2ccc(OCCN3CCOCC3)cc2)nc(-c2cccc(NC(=O)c3cc4c(s3)CCCC4)c2CO)n1 [Example 138, N-[3-(4-Amino-6-{[4-(2-morpholinoethoxy)phe-nyl]amino}1,3,5-tri-azin-2-yl)-2-(hydroxy-methyl)phenyl]-4,5,6,7-tetrahydrobenzo[b]thio-phene-2-carboxamide]
1.6 | CC1CCc2sc(C(=O)Nc3cccc(-c4nc(N)nc(Nc5ccc(N6CCOCC6)cc5)n4)c3CO)cc2C1 (centres unmarked) [Example 139, N-(3-{4-Amino-6-[(4-morpholinophenyl)amino]-1,3,5-triazin-2-yl}-2-(hydroxymethyl)phe-nyl)-5-methyl-4,5,6,7-tetrahydrobenzo[b] thiophene-2-carboxamide]
1.7 | CC(C)(C)c1ccc(C(=O)Nc2cccc(-c3nc(N)nc(Nc4ccc5[nH]ncc5c4)n3)c2CO)cc1 [Example 140, N-(3-{4-[(1H-Indazol-5-yl)amino]-6-amino-1,3,5-triazin-2-yl}-2-(hydroxymethyl)phenyl)-4-(tert-butyl)benzamide]
1.2 | CC(C)(C)c1ccc(C(=O)Nc2cccc(-c3nc(N)nc(Nc4ccc5[nH]c(=O)[nH]c5c4)n3)c2CO)cc1 [Example 141, N-(3-{4-Amino-6-[(2-oxo-2,3-dihydro-1H-ben-zo[d]imidazol-5-yl)ami-no]-1,3,5-triazin-2-yl}-2-(hydroxymethyl)phenyl)-4-(tert-butyl) benzamide]
3.1 | COC(=O)c1cccc(Nc2nc(N)nc(-c3cccc(NC(=O)c4ccc(C(C)(C)C)cc4)c3CO)n2)c1 [Example 142, Methyl 3-[(4-amino-6-{3-[4-(tert-butyl)benzamido]-2-(hydroxymethyl)phe-nyl}-1,3,5-triazin-2-yl)amino]benzoate]
0.9 | Nc1nc(Nc2ccc(N3CCCC(O)C3)cc2)nc(-c2cccc(NC(=O)c3cc4c(s3)CCCC4)c2CO)n1 (centres unmarked) [Example 143, N-[3-(4-Amino-6-{[4-(3-hydroxypiperidin-1-yl)phenyl]amino}-1,3,5-triazin-2-yl)-2-(hy-droxymethyl)phenyl]-4,5,6,7-tetrahydrobenzo [b]thiophene-2-carbox-amide]
1.9 | CC(C)(C)c1ccc(C(=O)Nc2cccc(-c3nc(N)nc(Nc4ccc5nc[nH]c5c4)n3)c2CO)cc1 [Example 144, N-(3-{4-[(1H-Benzo[d]imidazol-6-yl)amino]-6-amino-1,3,5-triazin-2-yl}-2-(hydroxymeth-yl)phenyl)-4-(tert-butyl)benzamide]
1.8 | Nc1nc(Nc2ccc(N3CCOCC3)cc2)nc(-c2cccc(NC(=O)c3ccc(C4CC4)cc3F)c2CO)n1 [Example 145, N-(3-{4-Amino-6-[(4-morpholinophenyl)amino]-1,3,5-triazin-2-yl}-2-(hydroxymethyl)phe-nyl)-4-cyclopropyl-2-fluorobenzamide]
